In a melting point compilation (Tetko et al.; mined from patent text by program, amines drawn as free bases though some values may be those of a salt) one finds melting point data, which are given here for 64 molecules.

As to `CCOC(=O)CCC(=O)c1ccc(CCCCN2CCN(c3cccc(C)c3)CC2)cc1`, the melting point was in the range of 62 to 63 °C.

`COCCCS(=O)(=O)NC(=O)CCc1ccc(OC(C)C)cc1Oc1ncc(C(F)(F)F)cc1Cl`: the melting point fell in the range of 114 to 115 °C.

For `O=C(O)c1ccc(-c2ccnnc2)cc1`, the melting point was above 330 °C.

For `COC(=C1C2CC3CC1CC(Cl)(C3)C2)c1cc(O)cc(Cl)c1`, the melting point amounted to 130 °C.

`O=C(Nc1ccc(S(=O)(=O)N2CCOCC2)cc1)c1cc(N2CCOCC2)ccc1[N+](=O)[O-]` yielded a melting point of 252 °C.

In the case of `CCOC(=O)c1cc2cccc(O)c2[nH]1`, the melting point is 197 to 199 °C.

Consider `CN(C)c1ccc(C(N)=NNc2ccc([N+](=O)[O-])cc2)cc1`, for which the melting point worked out at 174 °C.

Turning to `COC(=O)c1cccc(-c2ccc3c(c2)NCC3)c1`, the melting point lay in the range of 104 to 105 °C.

In turn, `CNCCn1nc2c3c(c(NCCNCCO)ccc31)C(=O)c1c(OCc3ccccc3)ccc(OCc3ccccc3)c1-2` gave a melting point of 186 to 189 °C.

Molecule `CCC(O)c1ccc(Cl)c2nc3n(c12)CCCN3c1ccc(Cl)cc1Cl` (centres undefined) returned a melting point of 233 to 235 °C.

In the case of `Nc1c(F)c(N2CCC(=NO)C2)c(F)c2c1c(=O)c(C(=O)O)cn2C1CC1`, the melting point lay in the range of 273 to 276 °C.

`BrCC[Si](CCBr)(CCBr)CCBr` showed a melting point of 90 to 91 °C.

On to `CC(=O)N1CCN(CCn2c3ccccc3c(=NN=C3NCCS3)c3ccccc32)CC1`, for which the melting point turned out to be 256 °C.

`CN1C(=O)NC(Cc2c[nH]c3ccccc23)C1CCc1cc(C(F)(F)F)cc(C(F)(F)F)c1` (centres undefined): the melting point worked out at 191 °C.

The molecule `C=CCNC(=O)N1CCC1c1ccccc1F` (centres undefined) showed a melting point of 119 to 120 °C.

Turning to `CCCCCCCCCCCCCCCCCCOCC(COP(=O)([O-])OCC[N+](C)(C)C)Oc1ccon1` (racemic), the melting point fell in the range of 115 to 125 °C.

`CC1CN(c2c(F)c(N)c3c(=O)c(C(=O)O)cn(C4CC4)c3c2F)CCN1` (centres undefined) registered a melting point of 251 to 253 °C.

`O=C(NCCCSc1ccncc1)c1ccsc1`: the melting point was 121 to 122 °C.

Turning to `COc1ccc(C(=O)Nc2ccc3ccc(Oc4ccc(F)cc4)nc3n2)cc1`, the melting point stood at 100 °C.

Consider `COc1ccc(OC)c(C(=O)C#CC(=O)O)c1`, for which the melting point fell in the range of 91 to 93 °C.

In turn, `COc1cc(-c2nc(C)c(C(=O)NN)s2)cc(OC)c1OC` showed a melting point of 180 to 181 °C.

Take `CC(C)(C)OC(=O)Nc1ccc(-c2ccc(Cl)c(Cl)c2)cc1N`: the melting point lay in the range of 169 to 171 °C.

In the case of `O=C1Nc2cc(CN3CCN(c4ccc(C(=O)N5CCCC5)cc4)CC3)cnc2N2CCC[C@@H]12`, the melting point was 121 °C.

`COc1cc(-c2cnc3[nH]cc(C(=O)C(C)(C)OC)c3n2)cc(OC)c1OC` returned a melting point of 238 to 239 °C.

`CC1(C)COC(c2cc(F)c(F)c([Si](C)(C)C)c2F)=N1` displayed a melting point of 71 to 72 °C.

Take `CCCc1nc(C(C)O)c(C(=O)OCC)[nH]1` (centres undefined): the melting point lay within 151 to 153 °C.

`Nc1ccc2[nH]nc(Nc3nc(-c4ccccc4C(F)(F)F)nc4ccccc34)c2c1`: the melting point was in the range of 221 to 223 °C.

On to `CS(=O)(=O)N(c1ccc(C(=O)NC2CCN(C3CCCCC3)C2)cc1)S(C)(=O)=O` (centres undefined), for which the melting point was in the range of 176 to 178 °C.

The molecule `O=C(Nc1ccc(C(CC2CCCC2)C(=O)Nc2ccccn2)cc1)c1cccnc1` (centres undefined) returned a melting point of 160 to 163 °C.

The molecule `CC(=O)OC1C(OC(=O)c2ccccc2)C=C(C)C(=O)CC1(C)C` (centres undefined) gave a melting point of 94 to 95 °C.

The molecule `COc1ccc(CC(=O)O)cc1C(C)C` yielded a melting point of 94 to 96 °C.

In turn, `Cc1nc(CN(C)C)n2c1CN=C(c1ccccc1Cl)c1cc(Cl)ccc1-2` came in with a melting point of 185 to 186 °C.

In turn, `CSC1C(=O)Nc2c(Nc3ccc(Cl)cc3)cccc21` (centres undefined) came in with a melting point of 190 to 192 °C.

The molecule `Oc1ccc(CC2CO2)cc1` (racemic) yielded a melting point of 54 to 57 °C.

Turning to `Cc1ccc(Oc2ccccc2-n2cncn2)c(O)c1`, the melting point was 132 to 133 °C.

Turning to `COC(=O)C=Cc1ccc2c(ccn2S(=O)(=O)c2ccccc2)c1`, the melting point was in the range of 134 to 136 °C.

Consider `C=CCCc1ccc(C=NN=Cc2ccc(C)cc2)cc1`, for which the melting point worked out at 82 °C.

As for `N#Cc1coc2ccc(Br)cc2c1=O`, the melting point lay within 193 to 200 °C.

Turning to `COc1ccccc1-c1cccc2nc(Nc3cc(OC)c(OC)c(OC)c3)oc12`, the melting point lay within 185 to 187 °C.

`O=C(O)CCCc1cc2nc(Cl)ccc2n1S(=O)(=O)c1ccc(-c2ccncc2)cc1` returned a melting point of 174 °C.

`COC1CC=C(c2ccc(C(C)=O)cc2)CC1` (centres undefined) gave a melting point of 40 to 42 °C.

Regarding `Cc1nc(-c2cc3cccc(OC[C@@H](O)CN4CCC(c5ccc6ccccc6c5)CC4)c3o2)no1`, the melting point fell in the range of 169 to 170 °C.

`CCc1[nH]nc(C(=O)NC2CCCC2)c1[N+](=O)[O-]`: the melting point lay within 156 to 157 °C.

In turn, `COc1ccc(N2C(=O)C3Cc4c(ncn4Cc4ccccc4)CN3C2=S)cc1` (centres undefined) gave a melting point of 100 to 120 °C.

`Cc1ccc(S(=O)(=O)N=CN(C)C)cc1Br` came in with a melting point of 162 °C.

For the molecule `CCOc1ccc2c(c1)C(N)(c1ccccc1Cl)C(=O)N2` (centres undefined), the melting point fell in the range of 173 to 175 °C.

Regarding `COc1ccc(-c2[nH]nc3c2C(=O)c2c(NC(=O)Cc4ccc(OC)c(OC)c4)cccc2-3)cc1`, the melting point is above 300 °C.

Consider `CCCc1c(O)ccc2c(=O)cc(/C=C/C(=O)OCC)oc12`, for which the melting point is 203 to 204 °C.

In the case of `COC(=O)c1ccc(Cn2cc(/C=C/C(=O)N3CCCC3)c3ccc(/C=C/C(=O)N4CCCC4)cc32)c(OC)c1`, the melting point lay within 226 to 228 °C.

`CCc1cc(C(=O)c2ccccc2Cl)c(-n2c(C)nnc2CNC(=O)c2[nH]c3ccccc3c2C)s1` came in with a melting point of 143 to 147 °C.

For the molecule `CSc1c[nH]c2ncccc12`, the melting point is 115 to 116 °C.

`C=CCSc1ccc(Oc2cccc(C)c2)nn1`: the melting point lay within 48 to 50 °C.

Consider `CCOC(=O)C1=C(C)NC(C)=C(C(=O)OCC)C1c1ccccc1/C=C(\C)C(=O)OCC`, for which the melting point lay within 105 to 106 °C.

`CCOC(=O)c1ccc2c(c1)sc1cc(N(C)C)ccc12` gave a melting point of 160 to 162 °C.

In turn, `CCCCCCCOc1c(OC)cc(N)c2nccc(C)c12` gave a melting point of 68 to 70 °C.

`COc1ccc2nc(Cl)c(OC)nc2c1` yielded a melting point of 79 to 81 °C.

`CC(C)(C)c1ccc(C=C(CCCCCC2CCCCC2)COCc2ccccc2)cc1NC(=O)CC1c2ccccc2Oc2ccccc21` came in with a melting point of 110 °C.

In turn, `CN(C=O)C1CCC(O)(c2ccc(Cl)c(Cl)c2)c2ccccc21` (centres undefined) returned a melting point of 123 to 125 °C.

As for `COc1ccc(C(=O)CC2CSCCC2=O)cc1` (centres undefined), the melting point fell in the range of 123 to 125 °C.

`COc1ccc(C2CC(=O)N(C(=O)Nc3ccc(F)cc3)N2C)cc1OC1CCCC1` (centres undefined) gave a melting point of 123 to 124 °C.

For the molecule `CC(C)c1ccc(N(Cc2ccc(N(C)C)cc2)C(=O)C2CCCc3ccc(C(C)C)cc32)cc1` (centres undefined), the melting point lay within 123 to 125 °C.

On to `COc1ccccc1N1CCN(CC(O)COc2ccccc2CN)CC1` (centres undefined), for which the melting point fell in the range of 113 to 114 °C.

With `COc1nnc(C)c(-c2ccc(SC)cn2)c1-c1ncc(Cl)cc1Cl`, the melting point was 147 to 149 °C.

Turning to `CON(C)C(=O)Nc1ccc(CC#N)cc1Cl`, the melting point was 104 °C.

The melting point is the temperature of the solid-liquid transition.
